From patent US20240418723A1, “SEQUENTIAL TREATMENTS AND BIOMARKERS TO REVERSE RESISTANCE TO KINASE INHIBITORS” (Queen Mary University of London, priority 2021, published 2024)

Key:
[1] = test system: P31/Fuj AML cells; experiment: Sequential treatment of P31/Fuj cells (ATRA or LSD1 inhibitor 5 days, then MEKi 3 days; also co-treatment and reverse treatment): cell viability, cell number, apoptosis, CDI; assay type: cell-based
Description: (§1) The Bliss independence model was used to derive coefficients of drug interaction (CDI) values, where CDI <1 indicates significant priming by the […] (synergistic effect).
(§2) For the proliferation/viability assays, cells were seeded in T75 flasks (0.5×10^6 cells/mL of RPMI/FBS medium) and exposed for 5 days to either vehicle or epigenetic modifier. Unless otherwise specified, the final concentration for GSK2879552 (LSD1i), […] (EZH2i), pinometostat (DOT1Li) and ATRA was 1 μM while for decitabine (DNMTAi) and vorinostat (HDACi) was 100 nM; all epigenetic inhibitors were diluted in DMSO, while ATRA was diluted in Et-OH. Vehicle concentration was kept at 0.1%. […] The final concentration of DMSO was kept at 0.1%. Finally, cells were transferred to 96-well plates (100 μL per well in 3 technical replicates per condition) and cell viability and proliferation were assessed using Guava and ApoTox-Glo Triplex analyses, as indicated below.
(§3) For Guava analysis, cells were stained with Guava ViaCount reagent (Luminex #4000-0040) in 96-well plates, by mixing 150 μL of cell suspension with 75 μL of reagent, and left to incubate for a minimum of 10 minutes in the dark, after which they were processed through a Guava easyCyte flow cytometer (Luminex #0500-5005). Flow cytometry data were analysed using CytoSoft (v2.5.7). Viability and cell number values were expressed relative to vehicle control.
For ApoTox-Glo analysis, cell suspensions were transferred to opaque 96-well plates (100 μL per well) and viability and apoptosis measured using ApoTox-Glo Triplex Assay (Promega #G6320). 20 μL of Viability/Cytotoxicity reagent (containing GF-AFC and bis-AAF-R110 substrates) were added to each well, then incubated at 37° C. for 1 hour. Live cell and cytotoxicity outputs were measured on FLUOstar Omega microplate reader (BMG Labtech). To obtain the live cell output, fluorescence was measured at 355EX/520EM (wavelengths in nm); for the cytotoxicity output, fluorescence was measured at 485EX/520EM. Following this, 100 μL of Caspase-Glo 3/7 reagent were added to each well and incubated at 25° C. for 1 hour. Luminescence was then measured on FLUOstar Omega microplate reader (BMG Labtech). The fluorescence and luminescence signals thus obtained were corrected to the respective background controls (culture medium with no cells). Relative cell number values were obtained by normalising live cell outputs to vehicle control. Apoptosis values were obtained by dividing luminescence outputs to the respective live cell outputs, then normalising to vehicle control.
The extent of drug interaction was calculated in Microsoft Excel 2016 using the CDI formula AB/(A*B), where AB is the normalized reduction in cell viability of the sequential treatment, and A and B are the effects of single treatments. Statistical significance of CDI values for each AML sample was determined using a one sample t-test (base R package) with the null hypothesis being that the mean Log2(CDI) equals 0.

[2] = test system: AML cell lines; experiment: Small-scale drug screens: epigenetic antagonist 5 days followed by kinase inhibitor 3 days, cell viability/proliferation, CDI; assay type: cell-based
Description: as §1, §2
as §3, with “Viability and cell number values were expressed relative to vehicle control.” left out

[3] = test system: P31/Fuj cells; experiment: Subcellular (cytosolic and nuclear/organelle) proteomics of LSD1i-treated P31/Fuj cells; assay type: cell-based
Description: Isolation of nuclear/organelle and cytosolic fractions for proteomic analysis was carried out as described below.
The isolation of cytosolic and nuclear/organelle proteins was performed as follows. Cells (10×10^6 cells per replicate) were resuspended in 1 mL hypotonic lysis buffer (containing 10 mM Tris-HCl pH 8.0, 1 mM KCl, 1.5 mM MgCl2, 1 mM DTT, 1 mM Na3VO4 and 1 mM NaF) and incubated at 4° C. for 30 minutes on a rotator. Nuclei/organelles were then pelleted (10,000×g, 10 min, 4° C.), after which the supernatant (cytosolic fraction) was transferred to fresh tubes. The nuclear/organelle fraction was further processed for proteomic analysis by adding 8M urea buffer as indicated above.
Proteins in the supernatant were isolated by methanol/chloroform precipitation as follows. Methanol was added to the protein solution (at 4×initial volume), followed by chloroform (1×initial volume) and ddH2O (3×initial volume), vortexing after each addition. Samples were centrifuged for 2 min, 12,000×g, 4° C., and the top aqueous layer was removed. Additional methanol was added (4×initial volume) and samples vortexed. Samples were centrifuged for 3 min, 12,000×g, 4° C., and the supernatant removed. Protein pellets were dried briefly at RT, then resuspended in 8M urea buffer. Homogenisation, cysteine alkylation and tryptic digestion of the nuclear and cytosolic fractions were carried out as described above. Desalting was performed through C18 spin columns (Glygen Corporation, Cat. TT2C18) following the manufacturer's indications. Briefly, columns were equilibrated twice with 200 μL 70% ACN, and washed twice with 200 μL 1% ACN. Peptide samples were loaded onto the columns, then washed twice with 200 μL 1% ACN, with spinning. […] Columns were spun for 2 min at 1,500×g, 4° C. each time they were loaded.

[4] = test system: P31/Fuj cells; experiment: Phosphoproteomics (LC-MS/MS) and kinase network analysis of treated P31/Fuj cells
Description: To study ATRA effect over the phosphoproteome, P31/Fuj cells (10×10^6 cells at 0.5×10^6 cell/mL) were seeded in T75 flask and treated with either Et-OH, 1 μM ATRA or 10 μM ATRA for 5 days. […] For both experiments, cells were collected by centrifugation (1500 rpm for 5 min at 5° C.), then cell pellets were washed twice with ice cold PBS supplemented with phosphatase inhibitors (1 mM Na3VO4, 1 mM NaF) and stored at −80° C. Pellets were processed for phosphoproteomics analysis as indicated below.
In brief, cell pellets were lysed in 300 μL of urea buffer (8 M urea in 20 mM HEPES, pH 8.0, supplemented with 1 mM Na3VO4, 1 mM NaF, 1 mM Na4P2O7 and 1 mM P-glycerophosphate). Lysates were further homogenized by sonication (30 cycles of 30 s on 30 s off; Diagenode Bioruptor® Plus) and insoluble material was removed by centrifugation. Protein was quantified using BCA (Thermo Fisher Scientific). Then, 500 μg of protein were subjected to cysteine alkylation using sequential incubation with 10 mM dithiothreitol (DDT) and 16.6 mM iodoacetamide (IAM) for 1 h and 30 min, respectively, at 25° C. with agitation. Trypsin beads (50% slurry of TLCK-trypsin; Thermo Fisher Scientific; Cat. #20230) were equilibrated with 3 washes with 20 mM HEPES (pH 8.0), the urea concentration in the protein suspensions was reduced to 2 M by the addition of 20 mM HEPES (pH 8.0), 100 μL of equilibrated trypsin beads were added and the samples were incubated overnight at 37° C. Trypsin beads were removed by centrifugation (2000×g at 5° C. for 5 min) and the resulting peptide solutions were desalted through Oasis HLB cartridges (Waters) following the manufacturer's indications. Briefly, cartridges were set in a vacuum manifold device and the pressure was adjusted to 5 mmHg. Then, cartridges were conditioned with 1 mL acetonitrile (ACN) and equilibrated with 2.5 mL of wash solution (0.1% trifluoroacetic acid (TFA), 2% ACN). Peptides were loaded in the cartridges and washed with 1 mL of wash solution. Finally, peptides were eluted with 500 μL of glycolic acid buffer 1 (1 M glycolic acid, 5% TFA, 50% ACN). Enrichment of phosphorylated peptides was performed with TiO2 Beads (GL Sciences). The eluents were normalized to 1 mL with glycolic acid buffer 2 (1 M glycolic acid, 5% TFA, 80% ACN) and incubated with 50 μl of TiO2 buffer (50% slurry in 1% TFA) for 5 min at room temperature. TiO2 beads were packed by centrifugation into empty spin columns (Glygen Corporation; Cat. TT2EMT) previously washed with ACN. TiO2 beads were sequentially washed by centrifugation (1500×g for 3 min) with 100 μL of glycolic acid buffer 2, ammonium acetate solution (100 mM ammonium acetate in 25% ACN) and twice with neutral solution (10% ACN). For phosphopeptide elution, spin tips were transferred to fresh tubes, 50 μL of elution solution (5% NH4OH, 7.5% ACN) were added and tips were centrifuged at 1500×g for 3 min. The elution step was repeated a total of 4 times. Finally, samples were snap frozen, dried in a SpeedVac and phosphopeptide pellets were stored at −80° C.

[5] = LSD1i and MEKi co-treatment 3 days, P31/Fuj (FIG. 10B)
[6] = 0.5 μM LSD1i 5 days versus control (FIG. 21A)
[7] = 0.5 μM LSD1i 5 days versus control (FIG. 21B)
[8] = LSD1i, pathway analysis of proteomics data (FIG. 21 C, D)
[9] = LSD1i by itself, 2.5 z-score threshold (FIG. 6C)
[10] = LSD1i relative to control (FIGS. 6 C, D, 18B)
[11] = LSD1i treatment, P31/Fuj (FIG. 19A)

O=C(O)c1ccc(CN2CCC(CN[C@@H]3C[C@H]3c3ccccc3)CC2)cc1 [GSK2879552]
Log2 CDI, reverse treatment ([1]; 3-day pre-treatment with MEKi followed by 5-day LSD1i, additive to strongly antagonistic, P31/Fuj): > 0
Log2 CDI based on cell number and apoptosis, 5+3 days sequential treatment ([1]; LSD1i 5 days then MEKi 3 days, all concentrations above 10 nM, strongly synergistic, P31/Fuj (FIG. 10A)): below 0
sensitisation to the effects of MEKi (suppressing proliferation and inducing apoptosis) ([1]; LSD1i 5 days then MEKi 3 days, dose-dependent manner, P31/Fuj cells (FIG. 2E)): sensitised P31/Fuj cells to the effects of MEKi
CDI for apoptosis, 3-day co-treatment [1, 5]: mildly synergistic
CDI for proliferation, 3-day co-treatment [1, 5]: near additive
number of AML cell lines sensitised to midostaurin, pictilisib or trametinib ([2]; LSD1i pre-treatment, out of the 12 AML cell lines tested (FIG. 2D)): 9
-Log2 CDI (coefficient of drug interaction), sensitisation to kinase inhibitor treatment ([2]; epigenetic antagonist 5 days, then MEK, mTOR or PKC inhibitor 3 days, cell viability, Bliss independence, CDI <1 = synergistic (FIG. 2C)): one of the most potent sensitisers to kinase inhibitor treatment
number of proteins decreasing in cytosolic fraction [3, 6]: 379
number of proteins increased in cytosolic fraction [3, 6]: 101
number of proteins decreasing in nuclear/organelle fraction [3, 7]: 334
number of proteins increased in nuclear/organelle fraction [3, 7]: 293
expression of MAPK pathway enzymes including NRAS, KRAS, MEK1 and P90-S6K (RPS6KA1 isoform) ([3]; LSD1i 5 days (FIG. 7B, 22A)): increase
expression of PI3K p110δ catalytic isoform, AKT2, and RAC1 ([3]; LSD1i 5 days (FIG. 7B, 22A)): decrease
proteins involved in the PI3K, insulin and c-MYC signaling pathways [3, 8]: decrease
α and β-integrin signaling proteins [3, 8]: increase
phosphorylation sites affected by kinase inhibitors after LSD1i pre-treatment versus vehicle ([4]; 0.5 μM LSD1i 5 days, then 1 μM kinase inhibitor 1 h, P31/Fuj (FIG. 6B)): fewer phosphorylation sites
c-Myc phosphorylation at S62 ([4]; LSD1i 5 days, P31/Fuj (FIG. 6F)): reduced
kinase activities (node centrality) ([4]; LSD1i by itself relative to control (FIG. 6D)): decreased more kinase activities than it increased
number of network axes with decreased enrichment [4, 9]: 18
number of network axes with increased enrichment [4, 9]: 6
effect of PI3K, AKT, MEK and ERK inhibitors in increasing phosphorylation of epigenetic regulators and histones, CDKs, cyclins and DNA repair proteins ([4]; LSD1i pre-treatment (FIG. 6H, 19 D, E)): blunted
circuitries containing AKT and MTOR [4, 10]: decrease
circuitries with PKCI and MEK1 (MAP2K1) [4, 10]: increased
AHNAK pS5110 phosphorylation [4, 11]: increased
PI3K/AKT pathway markers GSK3B pS13 and RPS6 p236, and MAPK pathway marker MAPK3 (ERK1) pT202 [4, 11]: decreased
kinase inhibitor-induced increase in phosphorylation of LSD1/KDM1A at T95 and S93 ([4]; control cells versus LSD1i pre-treated cells (FIG. 6G, 19A)): not in cells pre-treated with LSD1i
